Source: PMC9841527 (Journal of Medicinal Chemistry, 2022)

How the values were obtained:
[1] = molecular target: T1, A1 adenosine receptor (A1AR) (Homo sapiens, UniProt P30542); assay: A1AR agonist radioligand binding assay; conditions: compound 10 μM, [3H]CCPA 1 nM, transfected CHO cell membranes
T1 sequence (P30542 1-326): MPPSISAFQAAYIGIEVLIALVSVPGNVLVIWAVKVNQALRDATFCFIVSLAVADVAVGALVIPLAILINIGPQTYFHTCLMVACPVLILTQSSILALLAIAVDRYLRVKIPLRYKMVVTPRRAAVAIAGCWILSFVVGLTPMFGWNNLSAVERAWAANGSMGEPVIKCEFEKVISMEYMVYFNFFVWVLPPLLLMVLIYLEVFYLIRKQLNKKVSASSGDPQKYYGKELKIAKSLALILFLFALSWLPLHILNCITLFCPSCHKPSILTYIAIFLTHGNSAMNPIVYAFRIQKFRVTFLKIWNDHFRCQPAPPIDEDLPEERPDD

[2] = molecular target: T2, MettL16 (Homo sapiens, UniProt Q86W50); assay: Selectivity assay, MettL16; format: biochemical; conditions: [I] = 10 μM, [SAM] = 160 μM or 30 μM
T2 sequence (Q86W50 1-562): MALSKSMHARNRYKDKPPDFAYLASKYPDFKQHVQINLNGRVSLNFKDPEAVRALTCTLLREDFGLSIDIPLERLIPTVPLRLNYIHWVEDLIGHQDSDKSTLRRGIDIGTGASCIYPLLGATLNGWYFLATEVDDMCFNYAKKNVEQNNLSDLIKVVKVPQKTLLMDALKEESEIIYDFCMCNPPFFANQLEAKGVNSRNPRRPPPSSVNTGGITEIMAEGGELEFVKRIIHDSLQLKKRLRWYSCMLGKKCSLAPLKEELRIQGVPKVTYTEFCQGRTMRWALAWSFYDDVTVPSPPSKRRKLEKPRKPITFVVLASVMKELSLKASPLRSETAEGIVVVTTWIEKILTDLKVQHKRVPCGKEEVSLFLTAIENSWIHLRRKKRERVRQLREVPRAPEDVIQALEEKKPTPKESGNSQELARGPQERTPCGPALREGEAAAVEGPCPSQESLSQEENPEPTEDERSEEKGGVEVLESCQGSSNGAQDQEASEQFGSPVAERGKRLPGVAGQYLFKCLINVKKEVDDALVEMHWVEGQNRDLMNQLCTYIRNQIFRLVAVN

[3] = molecular target: PRMT1 (Homo sapiens, UniProt Q99873); assay: Selectivity assay, PRMT1; format: biochemical; conditions: compound 10 μM, 3H-SAM 1 μM
PRMT1, sequence (Q99873 whole entry): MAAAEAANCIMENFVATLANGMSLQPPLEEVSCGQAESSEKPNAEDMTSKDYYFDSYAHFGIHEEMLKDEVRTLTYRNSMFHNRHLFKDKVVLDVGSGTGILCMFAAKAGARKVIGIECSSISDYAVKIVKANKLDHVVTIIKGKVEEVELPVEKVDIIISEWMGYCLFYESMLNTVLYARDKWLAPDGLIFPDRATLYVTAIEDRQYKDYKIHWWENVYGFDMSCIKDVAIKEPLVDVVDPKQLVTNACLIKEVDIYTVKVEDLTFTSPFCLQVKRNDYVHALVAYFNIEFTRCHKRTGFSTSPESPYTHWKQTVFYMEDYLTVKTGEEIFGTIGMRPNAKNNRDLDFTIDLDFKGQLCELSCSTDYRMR

Row | Compound | inhibition of control radioligand specific binding, A1AR [1] | inhibition of MettL16 [2] | inhibition of PRMT1 [3]
1 | OC[C@H]1O[C@@H](n2cnc3c(NCCCc4ccc(O)cc4)ncnc32)[C@H](O)[C@@H]1O [Compound 16, (2R,3S,4R,5R)-2-(Hydroxymethyl)-5-(6-((3-(4-hydroxyphenyl)propyl)amino)-9H-purin-9-yl)tetrahydrofuran-3,4-diol] | minimal inhibition of specific binding | none of them showed any significant inhibition | none of them showed any significant inhibition
2 | CC(C)(C)OC(=O)N1CCC(CCCNc2ncnc3c2ncn3[C@@H]2O[C@H](CO)[C@@H](O)[C@H]2O)CC1 [Compound 39, tert-Butyl-4-(3-((9-((2R,3R,4S,5R)-3,4-dihydroxy-5-(hydroxymethyl)tetrahydrofuran-2-yl)-9H-purin-6-yl)amino)propyl)piperidine-1-carboxylate] | minimal inhibition of specific binding | none of them showed any significant inhibition | none of them showed any significant inhibition
